Eight compounds from patent publication US6635641B2 (Agouron Pharmaceuticals, Inc., priority 2000, dated 2003) can be followed below.

Counter-ions that a name gives are not always drawn. Like-named read-outs stand apart in the source and are kept apart here.

Broadly, the Ki is the dissociation constant of the complex between target and ligand, obtained from inhibition or displacement. As usually defined, the inhibition is the percentage by which the read-out fell short of the control. The IC50 is the point on the concentration scale where inhibition reaches its midpoint. One may read the melting point as the temperature of the solid-liquid transition.

For series [1], the target named is T1, unphosphorylated VEGF-R2Δ50 (FLVK) (Homo sapiens, UniProt P35968, DEL940-989/E990V).
T1 construct: VEGF-R2Δ50 contains residues 806-939 and 990-1171; made in house; host or cells: baculovirus/insect cells
Nature of the series: VEGF-R2 coupled spectrophotometric assay, unphosphorylated construct (FLVK).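 Also: Baculovirus-expressed cytosolic kinase domain, ADP formation linked via pyruvate kinase and lactate dehydrogenase to NADH oxidation, read as falling absorbance at 340 nm.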 The series is classed as biochemical.

Series [2] concerns the target T2, FGF-R1 intracellular kinase domain (Homo sapiens, UniProt P11362, C488A/C584S/L457V).
T2 construct: starting from the endogenous methionine residue 456 to glutamate 766; made in house; host or cells: baculovirus expression system
Nature of the series: FGF-R spectrophotometric assay. The series is classed as biochemical. The following applies: for inhibition at 1 µM: read-out: FGF-P percent inhibition; for Ki: read-out: FGF-P Ki.
Description: The intracellular kinase domain of human FGF-R1 was expressed using the baculovirus vector expression system starting from the endogenous methionine residue 456 to glutamate 766, according to the residue numbering system of Mohammadi et al., Mol. Cell.
The production of ADP from ATP that accompanies phosphoryl transfer was coupled to oxidation of NADH using phosphoenolpyruvate (PEP) and a system having pyruvate kinase (PK) and lactic dehydrogenase (LDH). The oxidation of NADH was monitored by following the decrease of absorbance at 340 nm (e340=6.22 cm^−1 mM^−1) using a Beckman DU 650 spectrophotometer. […] Assays were initiated with 5 to 40 nM of enzyme. Ki values were determined by measuring enzyme activity in the presence of varying concentrations of test compounds. The data were analyzed using Enzyme Kinetic and Kaleidagraph software.
The spectrophotometric assay was carried out as described above for VEGF-R2, except for the following changes in concentration: FGF-R=50 nM, ATP=2 mM, and poly(E4Y1)=15 mM.

Another series concerns the target T3, LCK tyrosine kinase (Homo sapiens, UniProt P06239, C224D/P223M).
T3 construct: starting from amino acid residue 223 to the end of the protein at residue 509; made in house; host or cells: insect cells
Briefly: LCK spectrophotometric assay.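 As to all read-outs here: recombinant LCK kinase activity on poly(E4Y1), ADP formation coupled through PK/LDH to NADH oxidation, followed as absorbance loss at 340 nm.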 The series is classed as biochemical. Particulars: for inhibition at 1 µM: read-out: LCK-P percent inhibition; for Ki: read-out: LCK-P Ki.

For series [3], the target named is T4, TEK/Tie-2 intracellular kinase domain (Homo sapiens, UniProt Q02763).
T4 construct: residues 775 to 1124, with methionine added at the N-terminus; made in house; host or cells: baculovirus expression system
Briefly: TEK/Tie-2 spectrophotometric assay. The series is classed as biochemical. Particulars: read-out: TEK-P percent inhibition. As to the method:
The intracellular kinase domain (residues 775 to 1124, with methionine added at the N-terminus) of human TEK/Tie-2 was expressed using the baculovirus vector expression system. For assay purposes, the enzyme was autophosphorylated prior to use by incubation overnight at 4° C., at 10 μM enzyme concentration, with 4 mM ATP, 40 mM MgCl2, and 5 mM DTT in 200 mM Hepes buffer at ph 7.5, in 90:10 water:glycerol.
The production of ADP from ATP that accompanies phosphoryl transfer was coupled to oxidation of NADH using phosphoenolpyruvate (PEP) and a system having pyruvate kinase (PK) and lactic dehydrogenase (LDH). The oxidation of NADH was monitored by following the decrease of absorbance at 340 nm (e340=6.22 cm^−1 mM^−1) using a Beckman DU 650 spectrophotometer. Assay conditions for phosphorylated VEGF-R2Δ50 (indicated as FLVK-P in the tables below) were the following: 1 mM PEP; 250 μM NADH; 50 units of LDH/mL; 20 units of PK/mL; 5 mM DTT; 5.1 mM poly(E4Y1); 1 mM ATP; and 25 mM MgCl2 in 200 mM Hepes, pH 7.5. Assay conditions for unphosphorylated VEGF-R2Δ50 (indicated as FLVK in the tables) were the following: 1 mM PEP; 250 μM NADH; 50 units of LDH/mL; 20 units of PK/mL; 5 mM DTT; 20 mM poly(E4Y1); 3 mM ATP; and 60 mM MgCl2 and 2 mM MnCl2 in 200 mM Hepes, pH 7.5. Assays were initiated with 5 to 40 nM of enzyme. Ki values were determined by measuring enzyme activity in the presence of varying concentrations of test compounds. The data were analyzed using Enzyme Kinetic and Kaleidagraph software.
The spectrophotometric assay was carried out as described above for VEGF-R2, except for the following changes in concentration: TEK/Tie-2=200 nM, MgCl2=40 mM, and ATP=2 mM.

Series [4] deals with human umbilical vein endothelial cells (HUVEC). Nature of the series: HUVEC proliferation assay (VEGF-stimulated, MTT). In kind it is cell-based. The following applies: Homo sapiens. The gist of the method: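 Proliferation measured by MTT reduction (4 h exposure, absorbance at 595) 72 hours after VEGF stimulation (final 6 ng/ml). Compound added to 24 h-starved HUVEC in F12K with 1% FBS and 0.1% final DMSO, one hour before the growth factor.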

The target in series [5] is T5, phosphorylated VEGF-R2Δ50 (FLVK-P) (Homo sapiens, UniProt P35968, DEL940-989/E990V).
T5 construct: VEGF-R2Δ50 contains residues 806-939 and 990-1171; made in house; host or cells: baculovirus/insect cells
Briefly: VEGF-R2 coupled spectrophotometric assay, phosphorylated construct (FLVK-P). In kind it is biochemical. The gist of the method: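 Continuous PK/LDH-coupled spectrophotometric read (NADH loss at 340 nm) with 5–40 nM enzyme in 200 mM Hepes pH 7.5. Phosphorylated construct run at 1 mM ATP, 25 mM MgCl2, 5.1 mM poly(E4Y1); unphosphorylated at 3 mM ATP, 60 mM MgCl2 plus 2 mM MnCl2, 20 mM poly(E4Y1). Ki values derived from varied inhibitor concentrations.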

The test system of series [6] is lung cancer cells (line MV522). Nature of the series: Cancer cell proliferation (MV522) assay (MTT). The series is classed as cell-based. The following applies: MV522. The gist of the method: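 Proliferation was read by MTT reduction 72 h after compound addition, in a 4-day protocol with no starvation step. Two thousand MV522 cells were seeded in RPMI1640 with 10% FBS and 2 mM glutamine and given 1 day to attach before dosing.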

Another series has as its target T6, FL-CHK-1 (Homo sapiens, UniProt O14757).
T6 construct: C-terminally His-tagged full-length human CHK-1 (FL-CHK-1); made in house; host or cells: baculovirus/insect cells
T6 sequence (O14757 1-476): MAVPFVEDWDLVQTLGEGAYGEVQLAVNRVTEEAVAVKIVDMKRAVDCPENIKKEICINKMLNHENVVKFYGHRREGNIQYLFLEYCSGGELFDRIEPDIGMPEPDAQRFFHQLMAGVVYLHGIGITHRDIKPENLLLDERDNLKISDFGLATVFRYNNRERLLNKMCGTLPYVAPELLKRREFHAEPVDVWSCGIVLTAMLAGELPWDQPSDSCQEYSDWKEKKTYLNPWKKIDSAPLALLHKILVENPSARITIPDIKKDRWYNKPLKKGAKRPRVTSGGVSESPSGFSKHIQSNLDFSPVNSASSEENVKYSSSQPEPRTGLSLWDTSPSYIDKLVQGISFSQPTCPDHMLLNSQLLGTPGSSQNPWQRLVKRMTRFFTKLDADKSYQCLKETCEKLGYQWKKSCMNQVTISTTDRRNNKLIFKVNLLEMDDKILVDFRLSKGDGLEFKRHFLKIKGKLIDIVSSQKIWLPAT
Briefly: CHK-1 coupled spectrophotometric assay (Syntide-2). The series is classed as biochemical. The text has this: C-terminally His-tagged full-length human CHK-1 (FL-CHK-1) was expressed using the baculovirus/insect cell system. It contains 6 histidine residues (6×His-tag) at the C-terminus of the 476 amino acid human CHK-1. The protein was purified by conventional chromatographic techniques.
The production of ADP from ATP that accompanies phosphoryl transfer to the synthetic substrate peptide Syntide-2 ([…]) was coupled to oxidation of NADH using phosphoenolpyruvate (PEP) through the actions of pyruvate kinase (PK) and lactic dehydrogenase (LDH). The oxidation of NADH was monitored by following the decrease of absorbance at 340 nm (ε340=6.22 cm−1 mM^−1) using a HP8452 spectrophotometer. Typical reaction solutions contained: […]; 0.15 mM NADH; 28 units of LDH/ml; 16 units of PK/ml; 3 mM DTT; 0.125 mM Syntide-2; 0.15 mM ATP; 25 mM MgCl2 in 50 mM TRIS, pH 7.5; and 400 mM NaCl. Assays were initiated with 10 nM of FL-CHK-1. Ki values were determined by measuring initial enzyme activity in the presence of varying concentrations of test compounds. The data were analyzed using Enzyme Kinetic and Kaleidagraph software.

[7] abbreviates: HUVEC, with albumin, read-out: Huvec + Albumin IC50.

T5 sequence (P35968 with tags, fused parts or gaps DEL940-989/E990V limits assumed): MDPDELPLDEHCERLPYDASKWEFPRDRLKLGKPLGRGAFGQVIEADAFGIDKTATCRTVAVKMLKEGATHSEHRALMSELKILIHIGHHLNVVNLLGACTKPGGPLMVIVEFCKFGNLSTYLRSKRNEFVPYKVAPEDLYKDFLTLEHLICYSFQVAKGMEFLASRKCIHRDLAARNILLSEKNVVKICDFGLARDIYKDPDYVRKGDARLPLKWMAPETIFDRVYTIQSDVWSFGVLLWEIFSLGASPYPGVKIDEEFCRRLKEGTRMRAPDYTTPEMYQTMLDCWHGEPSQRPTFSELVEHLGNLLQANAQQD
T1 sequence (P35968 with tags, fused parts or gaps DEL940-989/E990V limits assumed): as above
T4 sequence (Q02763 775-1124): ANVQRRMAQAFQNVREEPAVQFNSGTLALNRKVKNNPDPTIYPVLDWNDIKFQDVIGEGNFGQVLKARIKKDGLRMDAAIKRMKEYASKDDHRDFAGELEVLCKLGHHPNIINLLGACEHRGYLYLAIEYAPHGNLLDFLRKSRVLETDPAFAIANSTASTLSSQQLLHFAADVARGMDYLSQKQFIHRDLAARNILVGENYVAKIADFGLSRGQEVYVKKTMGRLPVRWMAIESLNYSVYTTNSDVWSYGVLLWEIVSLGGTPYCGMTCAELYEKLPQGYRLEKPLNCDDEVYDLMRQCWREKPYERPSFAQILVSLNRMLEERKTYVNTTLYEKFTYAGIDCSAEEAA
T2 sequence (P11362 456-766 L457V/C488A/C584S): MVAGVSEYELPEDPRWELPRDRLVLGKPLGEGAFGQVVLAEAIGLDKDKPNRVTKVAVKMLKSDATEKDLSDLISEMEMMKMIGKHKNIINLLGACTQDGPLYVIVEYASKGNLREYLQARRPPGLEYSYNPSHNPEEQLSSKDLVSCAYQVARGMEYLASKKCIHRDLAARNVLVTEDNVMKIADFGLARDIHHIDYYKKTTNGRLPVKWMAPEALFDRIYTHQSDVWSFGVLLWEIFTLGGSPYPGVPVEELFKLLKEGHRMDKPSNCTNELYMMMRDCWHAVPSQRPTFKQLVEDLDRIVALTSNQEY
T3 sequence (P06239 223-509 P223M/C224D): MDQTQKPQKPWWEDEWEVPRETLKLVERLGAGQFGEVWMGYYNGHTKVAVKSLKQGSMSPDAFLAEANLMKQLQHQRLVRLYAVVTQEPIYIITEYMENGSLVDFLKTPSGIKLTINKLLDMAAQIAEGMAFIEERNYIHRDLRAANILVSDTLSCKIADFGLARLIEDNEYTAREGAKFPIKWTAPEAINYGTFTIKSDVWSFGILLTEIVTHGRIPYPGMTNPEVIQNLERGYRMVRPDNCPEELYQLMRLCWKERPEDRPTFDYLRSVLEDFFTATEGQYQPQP

In [1] (unphosphorylated VEGF-R2 construct), `CC(C)(C)c1cc(C(=O)Nc2cccc(CSc3ncnc4[nH]ncc34)c2)ccc1O` [Example V-4, N-{3-[(1H-pyrazolo[3,4-d]-pyrimidin-4-yl)sulfanylmethyl]phenyl}-(4-hydroxy-3-t-butyl)benzamide] displayed a Ki of 0.045 nM. In addition, the inhibition at 1 µM in series [2] stood at 37%; at LCK tyrosine kinase it was 22%; in series [3], 40%. Besides, the IC50 in series [4] (HUVEC proliferation with albumin, read-out: Huvec + Albumin IC50) was over 1000 nM; in [4] (VEGF-stimulated HUVEC proliferation, read-out: HUVEC IC50) it was 27 nM.

Take `COc1ccc(Nc2cc(CCc3cccc(C(=O)Nc4cc(Cl)c(N(C)C)c(Cl)c4)c3)[nH]n2)cn1` [Example G-7, N-(3,5-Dichloro-4-dimethylaminophenyl)-3-{2-[5-(6-methoxy-pyridin-3-yl)amino-2H-pyrazol-3-yl]ethyl}benzamide]: the Ki in [5] turned out to be 0.65 nM; in series [1] it was 0.25 nM; in [2], 23 nM; at LCK tyrosine kinase, 27 nM. Further, in [3], the inhibition at 1 µM came out at 14%. Also, the IC50 in series [4] (HUVEC, read-out: HUVEC IC50) was 17 nM; in [4] (setting [7]), 190 nM; in series [6], over 10000 nM.

With `COc1ccc(Nc2cc(CCc3cccc(C(=O)Nc4ccc(N5CCCC5)c(C(F)(F)F)c4)c3)[nH]n2)cn1` [Example G-8, 3-{2-[5-(6-Methoxypyridin-3-yl)amino-2H-pyrazol-3-yl]-ethyl}-N-(4-pyrrolidin-1-yl-3-trifluoromethylphenyl)benzamide], the Ki in series [5] was found to be 0.73 nM; in [1] it was 0.035 nM; in series [2], 20 nM; at LCK tyrosine kinase, 5.8 nM. In series [3], the inhibition at 1 µM was found to be 62%. In addition, the IC50 was 12 nM in series [4] (HUVEC, read-out: HUVEC IC50); 114 nM in series [4] (setting [7]); 8700 nM in series [6].

Regarding `COc1ccc(Nc2cc(COc3cc(C(=O)Nc4ccc(N5CCCC5)c(C(F)(F)F)c4)ccc3F)[nH]n2)cn1` [Example J-2, 4-Fluoro-3-[5-(6-methoxy-pyridin-3-yl)amino-2H-pyrazol-3-yl]methoxy-N-(4-pyrrolidin-1-yl-3-trifluoromethyl-phenyl)-benzamide], the Ki came to 0.68 nM in [1], 57 nM in series [2] and 10.5 nM at LCK tyrosine kinase. Further, the inhibition at 1 µM in [3] was determined as 17%. Moreover, the IC50 was 26 nM in [4] (HUVEC, read-out: HUVEC IC50); 180 nM in [4] (setting [7]); over 10000 nM in series [6].

Take `Cc1ccc2cc(NC(=O)c3cccc(OCc4cncc5ccccc45)c3)ccc2n1` [Example K-3, 3-(Isoquinolin-4-yl)methoxy-N-(2-methyl-quinolin-6-yl)-benzamide hydrochloride]: the Ki in [5] was 1.66 nM; in [1] it was 3.4 nM; on FL-CHK-1, 26000 nM. The IC50 in [4] (HUVEC, read-out: HUVEC IC50) was 430 nM; in series [6], over 10000 nM.

For `O=C(Nc1ccc(N2CCNCC2)c(C(F)(F)F)c1)c1ccc(F)c(OCc2cccnc2)c1` [Example R-13, 4-Fluoro-N-[4-(piperazin-1-yl)-3-trifluoromethylphenyl]-3-(pyridin-3-yl)methoxybenzamide], the melting point was 123 to 131 °C. The compound further returned an inhibitory constant (Ki) in [1] of 16.5 nM. Also, the inhibition at 1 µM in series [2] came out at 7%. Also, the inhibition at 1 µM at LCK tyrosine kinase came to 5%. For the same compound, the IC50 in series [4] (HUVEC, read-out: HUVEC IC50) was determined as 19 nM. Also, in series [4] (setting [7]), the IC50 was 120 nM. 1800 nM corresponded to half-maximal inhibition in series [6] (IC50).

As to `O=C(Nc1ccc(N2CCOCC2)c(C(F)(F)F)c1)c1ccc(F)c(OCc2cccnc2)c1` [Example R-12, 4-Fluoro-N-(4-morpholin-4-yl-3-trifluoromethyl-phenyl)-3-(pyridin-3-ylmethoxy)-benzamide], the melting point lay within 160 to 161 °C. In [1], this compound showed a Ki of 4.4 nM. In addition, in series [2], the inhibition at 1 µM was determined as 62%. Besides, the inhibition at 1 µM at LCK tyrosine kinase is 45%. Also, the IC50 in [4] (HUVEC, read-out: HUVEC IC50) was found to be 15 nM. Also, in series [6], inhibition was half-maximal at 5900 nM (IC50).

`O=C(Nc1ccc(N2CCNCC2)c(C(F)(F)F)c1)c1cccc(CCc2cc(/C=C/c3cccnc3)n[nH]2)c1` [Example F-5] yielded a Ki in series [1] of 0.86 nM. Besides, the results for the inhibition at 1 µM (in series [2]; on LCK tyrosine kinase; in [3]) were 69%, 84% and 56%, respectively. Moreover, the IC50 in series [4] (HUVEC, read-out: HUVEC IC50) was 4.1 nM; in series [4] (setting [7]) it was 17 nM; in series [6] it was 1400 nM.
